Assay results reported in patent publication US20100267765A1, “Pharmaceutical Compositions and Methods for CCR5 Antagonists” (priority 2007, published 2010).

Key:
Format in all cases: in vivo, human
HDL cholesterol = test: Example 1: fasting HDL cholesterol after 24 weeks, OBT plus maraviroc vs OBT plus placebo; settings: for Numbers of individuals with maximum % increase in HDL cholesterol in range 10 to >30 (sum, within sensitivity range of assay) / Numbers of individuals with maximum % increase in HDL cholesterol relative to baseline 0-5% / Numbers of individuals with maximum % increase in HDL cholesterol relative to baseline 5-<10% / Numbers of individuals with maximum % increase in HDL cholesterol relative to baseline 10-<20% / Numbers of individuals with maximum % increase in HDL cholesterol relative to baseline 20-<30% / Numbers of individuals with maximum % increase in HDL cholesterol relative to baseline <0% / Numbers of individuals with maximum % increase in HDL cholesterol relative to baseline ≧30% / Mean % Change in HDL / Mean % difference from Group1 (placebo) (95% Confidence Interval) in HDL: 24 weeks
Method: (§1) The eligible patients were randomised into three groups based on the drug regimens they received.
(§2) Prior to the first dose (Day 1), a fasting assessment was made, in which the following was measured and taken as the baseline measurement: total cholesterol, HDL, LDL, triglycerides, glucose and glycosolated haemoglobin.
HDL as part of a lipid profile was measured by Covance laboratories (Indianapolis, Ind.).
(§3) After 24 weeks of treatment or early termination, the same lipid parameters (in particular HDL levels) were measured again.

LDL cholesterol [1] = test: Example 1: fasting LDL cholesterol after 24 weeks, OBT plus maraviroc vs OBT plus placebo
Method: as §1, §2, §3

[2] = system: total cholesterol/HDL ratio; test: MERIT study: total cholesterol/HDL ratio; settings: with Combivir; ARV-naive R5 HIV-1 patients; P=0.005 between groups
Text: (§4) The MERIT study design included a fasting metabolic assessment at baseline and at Weeks 24 and 48 or at early study discontinuation, to evaluate the fasted lipid values in the MERIT study and their potential effect on cardiovascular risk.
(§5) For a 50% smoking rate scenario (which approximates to the smoking rate seen in the DAD Study-Friis-Møller N, et al. N Engl J Med 2003; 349:1993-2003), smoking status (yes/no) was randomly imputed to the study population 500 times, by sampling from a binomial distribution with a probability of success of 0.5. Smoking status was assumed to remain constant for the duration of the study.

fasting lipid parameters = test: MERIT study: fasting lipoprotein profile (total cholesterol, HDL, LDL, triglycerides); settings: for HDL cholesterol levels on treatment: 48 weeks
Text: as §4, §5

[3] = system: HIV-1 (CXCR4 using viral population); test: Example 1: HIV-1 RNA viral load reduction after 24 weeks; settings: for Treatment difference in VL (95% confidence interval) / Mean VL reduction: 24 weeks
Text: The baseline HIV-1 RNA count was taken prior to the first dose (Day 1) and at multiple time points during the 24-week study period.

LDL cholesterol [4] = test: MERIT study: on-treatment fasting LDL cholesterol vs NCEP cutpoints; settings: with Combivir
Text: as §4, §5

[5] = MERIT study: 10-year coronary heart disease risk by Framingham equation; settings: for Absolute CHD 10-year risk (mean [SD]): Framingham equation, simulated smoking rate 50%, with Combivir
Text: as §5

[6] = Group 2: OBT plus maraviroc 150 or 300 mg po QD, N = 63
[7] = Group 2: OBT plus maraviroc QD, n = 45
[8] = Group 3: OBT plus maraviroc 150 or 300 mg po BID, N = 61
[9] = Group 3: OBT plus maraviroc BID, n = 48
[10] = patients already above threshold at baseline excluded, P<0.0001

(N-{(1S)-3-[3-isopropyl-5-methyl-4H-1,2,4-triazole-4-yl]-exo-8-azabicyclo[3.2.1]oct-8-yl}-1-phenylpropyl)-4,4-difluorocyclohexanecarboxamide) [maraviroc]
Increase in HDL-C levels following treatment (HDL cholesterol; 300 mg BID maraviroc, Tables 2a, 3a): clear dose-related increase | Numbers of individuals with maximum % increase in HDL cholesterol in range 10 to >30 (sum, within sensitivity range of assay) (HDL cholesterol; [6]): 18 | Numbers of individuals with maximum % increase in HDL cholesterol relative to baseline 0-5% (HDL cholesterol; [6]): 6 | Numbers of individuals with maximum % increase in HDL cholesterol relative to baseline 5-<10% (HDL cholesterol; [6]): 4 | Numbers of individuals with maximum % increase in HDL cholesterol relative to baseline 10-<20% (HDL cholesterol; [6]): 7 | Numbers of individuals with maximum % increase in HDL cholesterol relative to baseline 20-<30% (HDL cholesterol; [6]): 2 | Numbers of individuals with maximum % increase in HDL cholesterol relative to baseline <0% (HDL cholesterol; [6]): 17 | Numbers of individuals with maximum % increase in HDL cholesterol relative to baseline ≧30% (HDL cholesterol; [6]): 9 | Mean % Change in HDL (HDL cholesterol; [7]): 13.1% | Mean % difference from Group1 (placebo) (95% Confidence Interval) in HDL (HDL cholesterol; [7]): 10.8 (−3.4, 25.0) % | Numbers of individuals with maximum % increase in HDL cholesterol in range 10 to >30 (sum, within sensitivity range of assay) (HDL cholesterol; [8]): 28 | Numbers of individuals with maximum % increase in HDL cholesterol relative to baseline 0-5% (HDL cholesterol; [8]): 5 | Numbers of individuals with maximum % increase in HDL cholesterol relative to baseline 5-<10% (HDL cholesterol; [8]): 1 | Numbers of individuals with maximum % increase in HDL cholesterol relative to baseline 10-<20% (HDL cholesterol; [8]): 9 | Numbers of individuals with maximum % increase in HDL cholesterol relative to baseline 20-<30% (HDL cholesterol; [8]): 8 | Numbers of individuals with maximum % increase in HDL cholesterol relative to baseline <0% (HDL cholesterol; [8]): 14 | Numbers of individuals with maximum % increase in HDL cholesterol relative to baseline ≧30% (HDL cholesterol; [8]): 11 | Mean % Change in HDL (HDL cholesterol; [9]): 17.4% | Mean % difference from Group1 (placebo) (95% Confidence Interval) in HDL (HDL cholesterol; [9]): 15.1 (1.1, 29.1) % | Numbers of individuals with maximum % increase in LDL cholesterol in range 10 to >30 (sum, within sensitivity range of assay) (LDL cholesterol [1]; [6]): 20 | Numbers of individuals with maximum % increase in LDL cholesterol relative to baseline 0-5% (LDL cholesterol [1]; [6]): 2 | Numbers of individuals with maximum % increase in LDL cholesterol relative to baseline 5-<10% (LDL cholesterol [1]; [6]): 5 | Numbers of individuals with maximum % increase in LDL cholesterol relative to baseline 10-<20% (LDL cholesterol [1]; [6]): 9 | Numbers of individuals with maximum % increase in LDL cholesterol relative to baseline 20-<30% (LDL cholesterol [1]; [6]): 4 | Numbers of individuals with maximum % increase in LDL cholesterol relative to baseline <0% (LDL cholesterol [1]; [6]): 11 | Numbers of individuals with maximum % increase in LDL cholesterol relative to baseline ≧30% (LDL cholesterol [1]; [6]): 7 | Numbers of individuals with maximum % increase in LDL cholesterol in range 10 to >30 (sum, within sensitivity range of assay) (LDL cholesterol [1]; [8]): 18 | Numbers of individuals with maximum % increase in LDL cholesterol relative to baseline 0-5% (LDL cholesterol [1]; [8]): 4 | Numbers of individuals with maximum % increase in LDL cholesterol relative to baseline 5-<10% (LDL cholesterol [1]; [8]): 1 | Numbers of individuals with maximum % increase in LDL cholesterol relative to baseline 10-<20% (LDL cholesterol [1]; [8]): 5 | Numbers of individuals with maximum % increase in LDL cholesterol relative to baseline 20-<30% (LDL cholesterol [1]; [8]): 3 | Numbers of individuals with maximum % increase in LDL cholesterol relative to baseline <0% (LDL cholesterol [1]; [8]): 18 | Numbers of individuals with maximum % increase in LDL cholesterol relative to baseline ≧30% (LDL cholesterol [1]; [8]): 10 | LDL levels after treatment compared with placebo (Group 1) (LDL cholesterol [1]; Table 1a): no increase over placebo | Median decrease in the total cholesterol/HDL ratio [2]: −0.54 | HDL cholesterol levels on treatment (fasting lipid parameters; with Combivir): improved | Treatment difference in VL (95% confidence interval) ([3]; Group 2: OBT plus maraviroc QD vs Group 1 (placebo)): +0.06 log10 copies/mL | Mean VL reduction ([3]; Group 2: OBT plus maraviroc QD): −0.91 log10 copies/mL | Treatment difference in VL (95% confidence interval) ([3]; Group 3: OBT plus maraviroc BID vs Group 1 (placebo)): −0.23 log10 copies/mL | Mean VL reduction ([3]; Group 3: OBT plus maraviroc BID): −1.20 log10 copies/mL | Reduction in viral load (VL) in HIV patients with CXCR4 using viral population ([3]; after 24 weeks, vs Group 1): no statistically significant reduction

O=C1Nc2ccc(Cl)cc2[C@@](C#CC2CC2)(C(F)(F)F)O1 [efavirenz]
Number of patients who initiated LDL-lowering therapy during the study (LDL cholesterol [4]): six | Relation of change in LDL cholesterol to baseline LDL cholesterol (LDL cholesterol [4]; FIG. 2b): directly related | Patients with high on-treatment LDL cholesterol level (≧160 mg/dL) at both Week 24 and Week 48 (%) (LDL cholesterol [4]; P=0.007): 2.9% | Patients with high on-treatment LDL cholesterol level (≧160 mg/dL) at both Week 24 and Week 48 (n/N) (LDL cholesterol [4]; P=0.007): 10/343 | Patients who developed LDL cholesterol levels during the study that were ≧160 mg/dL (%) (LDL cholesterol [4]; [10]): 9% | Patients who developed LDL cholesterol levels during the study that were ≧160 mg/dL (n/N) (LDL cholesterol [4]; [10]): 31/343 | Median decrease in the total cholesterol/HDL ratio [2]: −0.43 | Absolute CHD 10-year risk (mean [SD]) ([5]; Week 24): 3.0% | Absolute CHD 10-year risk (mean [SD]) ([5]; Week 48): 3.3% | Relative risk of having a CHD event within 10 years ([5]; efavirenz group vs maraviroc group at Week 24 and Week 48, smoking rate 50%, FIG. 5b): consistently higher | Percentage of patients with increases in total cholesterol and LDL cholesterol levels at some point after baseline to ≧130 mg/dL (fasting lipid parameters; efavirenz compared with maraviroc, P<0.0001, FIG. 3b): greater percentage | Median maximum changes from baseline in total cholesterol, HDL cholesterol, LDL cholesterol and triglyceride levels (fasting lipid parameters; efavirenz group compared with maraviroc group, with Combivir, FIG. 1b): significantly greater | HDL cholesterol levels on treatment (fasting lipid parameters; with Combivir): improved
